Measurements: ChEMBL document CHEMBL4376854, “Investigation of the Adrenergic and Opioid Binding Affinities, Metabolic Stability, Plasma Protein Binding Properties, and Functional Effects of Selected Indole-Based Kratom Alkaloids” (J Med Chem, 2020)
Calls of active or inactive are those of the source. No cut-off for these calls is given here.

Tests used:
[1] = molecular target: T1, Alpha-1A adrenergic receptor (Homo sapiens, UniProt P35348); assay: Displacement of [3H]prazosin from human recombinant adrenergic alpha-1A receptor expressed in CHO cell membranes incubated for 60 mins
T1 sequence (P35348 whole entry): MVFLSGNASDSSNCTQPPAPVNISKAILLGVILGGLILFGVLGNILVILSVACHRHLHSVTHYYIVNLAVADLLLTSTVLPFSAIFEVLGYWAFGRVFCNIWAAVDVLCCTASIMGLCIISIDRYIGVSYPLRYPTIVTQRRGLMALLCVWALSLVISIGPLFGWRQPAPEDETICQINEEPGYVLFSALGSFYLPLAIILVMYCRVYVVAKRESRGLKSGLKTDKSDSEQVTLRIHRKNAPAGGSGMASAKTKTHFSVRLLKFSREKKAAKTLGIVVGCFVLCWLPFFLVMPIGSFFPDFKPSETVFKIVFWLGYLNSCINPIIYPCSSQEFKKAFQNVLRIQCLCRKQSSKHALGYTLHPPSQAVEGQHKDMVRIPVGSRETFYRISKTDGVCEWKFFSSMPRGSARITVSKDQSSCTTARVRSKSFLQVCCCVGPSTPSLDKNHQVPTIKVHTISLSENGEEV

[2] = molecular target: T2, Alpha-1D adrenergic receptor (Homo sapiens, UniProt P25100); assay: Displacement of [3H]prazosin from human recombinant adrenergic alpha-1D receptor expressed in CHO cell membranes incubated for 60 mins
T2 sequence (P25100 whole entry): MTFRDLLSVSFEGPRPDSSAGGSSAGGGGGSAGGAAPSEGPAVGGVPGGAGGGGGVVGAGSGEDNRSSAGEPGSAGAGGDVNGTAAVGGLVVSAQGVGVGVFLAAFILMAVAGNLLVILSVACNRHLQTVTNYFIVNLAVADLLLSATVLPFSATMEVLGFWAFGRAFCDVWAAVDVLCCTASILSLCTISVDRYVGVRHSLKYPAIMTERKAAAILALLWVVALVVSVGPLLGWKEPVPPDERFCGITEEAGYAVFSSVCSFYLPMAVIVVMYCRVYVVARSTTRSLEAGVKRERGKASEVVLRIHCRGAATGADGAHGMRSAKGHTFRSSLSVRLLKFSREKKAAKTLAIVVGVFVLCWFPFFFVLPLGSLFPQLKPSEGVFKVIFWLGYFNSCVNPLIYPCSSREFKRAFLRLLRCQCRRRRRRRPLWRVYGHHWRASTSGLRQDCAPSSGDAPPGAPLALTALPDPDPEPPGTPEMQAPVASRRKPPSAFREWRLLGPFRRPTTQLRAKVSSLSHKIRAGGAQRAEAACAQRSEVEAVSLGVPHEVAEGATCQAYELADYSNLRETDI

[3] = molecular target: T3, Alpha-2B adrenergic receptor (Homo sapiens, UniProt P18089); assay: biochemical; type: cell-based, CHO
T3 sequence (P18089 whole entry): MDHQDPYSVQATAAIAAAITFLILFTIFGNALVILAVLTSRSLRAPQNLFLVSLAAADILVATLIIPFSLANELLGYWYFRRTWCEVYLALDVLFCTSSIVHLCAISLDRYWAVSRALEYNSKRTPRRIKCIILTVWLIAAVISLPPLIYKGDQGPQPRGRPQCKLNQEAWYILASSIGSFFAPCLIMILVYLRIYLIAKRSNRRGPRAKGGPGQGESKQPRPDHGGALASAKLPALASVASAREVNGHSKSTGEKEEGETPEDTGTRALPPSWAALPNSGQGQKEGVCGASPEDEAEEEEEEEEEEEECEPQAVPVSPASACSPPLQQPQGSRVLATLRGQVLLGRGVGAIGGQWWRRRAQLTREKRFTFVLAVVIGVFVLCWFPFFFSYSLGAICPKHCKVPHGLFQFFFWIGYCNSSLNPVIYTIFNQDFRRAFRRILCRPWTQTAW

[4] = molecular target: T4, Alpha-1A adrenergic receptor (Homo sapiens) (UniProt P35348); assay: Partial agonist activity at human recombinant adrenergic alpha-1A receptor expressed in CHO cells assessed as stimulation of intracellular calcium levels incubated at room temperature by fluorimetry; type: functional, cell-based
T4 sequence (whole entry): T1 sequence (P35348 whole entry)

[5] = molecular target: T5, Alpha-1D adrenergic receptor (Homo sapiens) (UniProt P25100); assay: Partial agonist activity at human recombinant adrenergic alpha-1D receptor expressed in rat RBL cells assessed as stimulation of intracellular calcium levels incubated at room temperature by fluorimetry; type: functional, cell-based
T5 sequence (whole entry): T2 sequence (P25100 whole entry)

[6] = molecular target: T6, Alpha-2C adrenergic receptor (Homo sapiens) (UniProt P18825); assay: Competitive antagonist activity at human recombinant adrenergic alpha-2C receptor expressed in CHO cells assessed as inhibition of epinephrine-induced intracellular calcium levels incubated at room temperature by fluorimetry; type: functional, cell-based
T6 sequence (whole entry): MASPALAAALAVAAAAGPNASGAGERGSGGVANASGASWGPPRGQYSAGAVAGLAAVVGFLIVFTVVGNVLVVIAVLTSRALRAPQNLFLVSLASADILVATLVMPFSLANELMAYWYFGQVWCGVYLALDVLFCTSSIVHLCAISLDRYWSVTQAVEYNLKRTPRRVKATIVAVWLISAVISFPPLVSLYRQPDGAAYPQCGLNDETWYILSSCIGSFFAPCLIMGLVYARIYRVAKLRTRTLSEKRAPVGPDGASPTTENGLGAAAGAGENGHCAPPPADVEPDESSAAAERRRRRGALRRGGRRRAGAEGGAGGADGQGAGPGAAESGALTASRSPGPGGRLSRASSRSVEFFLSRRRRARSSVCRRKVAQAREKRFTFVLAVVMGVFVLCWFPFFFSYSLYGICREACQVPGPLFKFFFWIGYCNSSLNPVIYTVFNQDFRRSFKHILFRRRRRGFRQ

Mu-type opioid receptor = Mu-type opioid receptor (Homo sapiens, UniProt P35372); settings: HEK293, 100 nM
[7] = molecular target: Nociceptin receptor (Homo sapiens) (UniProt P41146); settings: 100 nM
[8] = molecular target: T7, Alpha-2C adrenergic receptor (Homo sapiens, UniProt P18825); assay: biochemical
T7 sequence (P18825 whole entry): T6 sequence (whole entry)

Rattus norvegicus = assay: Antinociceptive activity in Sprague-Dawley rat dosed intravenously using cumulative dosing every 5 mins until rat maxed-out on hot plate by hot plate test; type: functional; settings: iv

Mu-type opioid receptor, sequence (P35372 whole entry): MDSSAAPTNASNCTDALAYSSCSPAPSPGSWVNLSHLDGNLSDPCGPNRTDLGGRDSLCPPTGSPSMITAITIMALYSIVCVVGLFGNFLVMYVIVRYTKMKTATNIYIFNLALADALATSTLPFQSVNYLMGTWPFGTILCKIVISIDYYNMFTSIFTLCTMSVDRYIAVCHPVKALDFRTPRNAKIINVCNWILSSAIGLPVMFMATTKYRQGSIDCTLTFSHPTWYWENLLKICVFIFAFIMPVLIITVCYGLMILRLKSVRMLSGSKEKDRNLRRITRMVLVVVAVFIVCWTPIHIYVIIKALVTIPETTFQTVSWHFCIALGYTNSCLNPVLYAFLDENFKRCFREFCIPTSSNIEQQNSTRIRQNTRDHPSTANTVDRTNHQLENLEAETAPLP
Nociceptin receptor (Homo sapiens), sequence (P41146 whole entry): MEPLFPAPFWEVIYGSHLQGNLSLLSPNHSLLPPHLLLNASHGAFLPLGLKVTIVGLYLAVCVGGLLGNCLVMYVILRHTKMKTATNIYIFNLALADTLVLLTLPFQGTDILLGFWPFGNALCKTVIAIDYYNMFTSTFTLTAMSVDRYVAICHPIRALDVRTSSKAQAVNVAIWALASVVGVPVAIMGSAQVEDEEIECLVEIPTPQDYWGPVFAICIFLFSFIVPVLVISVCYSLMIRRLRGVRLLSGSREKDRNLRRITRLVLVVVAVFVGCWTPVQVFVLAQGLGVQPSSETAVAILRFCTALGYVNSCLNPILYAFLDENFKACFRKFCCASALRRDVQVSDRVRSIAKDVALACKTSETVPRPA

SMILES | Ki [1] [µM] | Ki [2] [µM] | Ki [3] [µM] | Activity [4] | Activity [5] | inhibition [6] | inhibition (Mu-type opioid receptor) [%] | inhibition [7] [%] | Ki [8] [µM] | ED50 (Rattus norvegicus) [mg/kg]
CC[C@@H]1CN2CCc3c([nH]c4cccc(OC)c34)[C@@H]2C[C@@H]1/C(=C\OC)C(=O)OC | 1.34 | 5.48 | 9.29 | Active | Active | Active | 29 | 4.3 | 2.32 | 
CC[C@@H]1CN2CCc3c([nH]c4cccc(OC)c34)[C@H]2C[C@@H]1/C(=C\OC)C(=O)OC |  |  |  |  |  |  |  |  |  | 6.25
